Data taken from patent US11999716B2, “WDR5 inhibitors and modulators” (priority 2018, dated 2024).

What follows are molecules tested on MV4:11 human cancer cell lines (assay: Cellular viability / anti-proliferative activity, CellTiter-Glo, 5 day protocol). Settings: Homo sapiens, MV4-11, 120 h, MV4:11 cells; 5 day incubation; CellTiter-Glo; mean of minimum two replicates; read-out: GI50 on cellular proliferation of MV4:11 human cancer cell lines.
Assay type: cell-based
Procedure, shortened: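 Compounds were tested over 22 two-fold dilutions starting at 30 μM in 0.3% DMSO, with 200 cells per well (7200 cells/mL). Viability was measured by CellTiter-Glo luminescence at day 5.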
`COc1ccnc(CN2CCc3c(cc(Cn4nc5ccccn5c4=N)cc3-c3cn(C)nc3C(F)(F)F)C2=O)c1` [Example 125, 7-((3-Imino-[1,2,4]triazolo[4,3-a]pyridin-2(3H)-yl)methyl)-2-((4-methoxypyridin-2-yl)methyl)-5-(1-methyl-3-(trifluoromethyl)-1H-pyrazol-4-yl)-3,4-dihydroisoquinolin-1(2H)-one] was tested, and the GI50 was > 0.938 µM.
In the case of `COc1ccnc(CN2CCc3c(cc(Cn4ccnc4C)cc3-c3cn(C)nc3C(F)(F)F)C2=O)c1` [Example 8, 2-((4-Methoxypyridin-2-yl)methyl)-7-((2-methyl-1H-imidazol-1-yl)methyl)-5-(1-methyl-3-(trifluoromethyl)-1H-pyrazol-4-yl)-3,4-dihydroisoquinolin-1(2H)-one], the GI50 is reported as < 0.05 µM.
`COc1ccnc(CN2CCc3c(cc(Cn4ccnc4N)cc3-c3cn(C)nc3C(F)(F)F)C2=O)c1` [Example 65, 7-((2-Amino-1H-imidazol-1-yl)methyl)-2-((4-methoxypyridin-2-yl)methyl)-5-(1-methyl-3-(trifluoromethyl)-1H-pyrazol-4-yl)-3,4-dihydroisoquinolin-1(2H)-one] was tested, and the GI50 was < 0.05 µM.
In the case of `COc1cc(CN2CCc3c(cc(Cn4cnnc4C)cc3-c3ccc(F)cc3C)C2=O)cc(OC)c1` [Example 145, 2-(3,5-Dimethoxybenzyl)-5-(4-fluoro-2-methylphenyl)-7-((3-methyl-4H-1,2,4-triazol-4-yl)methyl)-3,4-dihydroisoquinolin-1(2H)-one], the GI50 is reported as > 0.938 µM.
`Cc1cc([C@H](C)N2CCc3c(cc(CNc4cccc(=O)[nH]4)cc3-c3cn(C)nc3C(F)(F)F)C2=O)ccc1F` [Example 142, (S)-2-(1-(4-Fluoro-3-methylphenyl)ethyl)-5-(1-methyl-3-(trifluoromethyl)-1H-pyrazol-4-yl)-7-(((6-oxo-1,6-dihydropyridin-2-yl)amino)methyl)-3,4-dihydroisoquinolin-1(2H)-one] was tested, and the GI50 was > 0.938 µM.
Molecule `COc1ccnc(CN2CCc3c(cc(Cn4ccnc4C4CC4)cc3-c3cn(C)nc3C(F)(F)F)C2=O)c1` [Example 11, 7-((2-Cyclopropyl-1H-imidazol-1-yl)methyl)-2-((4-methoxypyridin-2-yl)methyl)-5-(1-methyl-3-(trifluoromethyl)-1H-pyrazol-4-yl)-3,4-dihydroisoquinolin-1(2H)-one] has a GI50 of 0.054 µM.
`Cc1nccn1Cc1ccc2c(c1)C(=O)N(Cc1cc(Cl)cc(Cl)c1)CC2` [Example 2, 2-(3,5-Dichlorobenzyl)-7-((2-methyl-1H-imidazol-1-yl)methyl)-3,4-dihydroisoquinolin-1(2H)-one] was tested, and the GI50 was > 0.938 µM.
`CCn1cc(-c2cc(Cn3ccnc3C(C)C)cc3c2CCN([C@@H](C)c2cc(OC)ccn2)C3=O)c(C(F)(F)F)n1` [Example 162, (S)-5-(1-Ethyl-3-(trifluoromethyl)-1H-pyrazol-4-yl)-7-((2-isopropyl-1H-imidazol-1-yl)methyl)-2-(1-(4-methoxypyridin-2-yl)ethyl)-3,4-dihydroisoquinolin-1(2H)-one] gave a GI50 of 13.4 µM.
In the case of `CCc1ccc(OC)c(CN2CCc3c(cc(Cn4ccnc4C)cc3-c3cn(C)nc3C(F)(F)F)C2=O)c1` [Example 217, 2-(5-Ethyl-2-methoxybenzyl)-7-((2-methyl-1H-imidazol-1-yl)methyl)-5-(1-methyl-3-(trifluoromethyl)-1H-pyrazol-4-yl)-3,4-dihydroisoquinolin-1(2H)-one], the GI50 is reported as 0.149 µM.
Molecule `COc1ccnc([C@H](C)N2CCc3c(cc(Cn4ccnc4C)cc3-c3ccncc3C(F)(F)F)C2=O)c1` [Example 248, (S)-2-(1-(4-Methoxypyridin-2-yl)ethyl)-7-((2-methyl-1H-imidazol-1-yl)methyl)-5-(3-(trifluoromethyl)pyridin-4-yl)-3,4-dihydroisoquinolin-1(2H)-one] has a GI50 of 0.055 µM.
In the case of `CCn1cc(-c2cc(Cn3ccoc3=N)cc3c2CCN(Cc2cn(C)nc2C)C3=O)c(C(F)(F)F)n1` [Example 97, 2-((1,3-Dimethyl-1H-pyrazol-4-yl)methyl)-5-(1-ethyl-3-(trifluoromethyl)-1H-pyrazol-4-yl)-7-((2-iminooxazol-3(2H)-yl)methyl)-3,4-dihydroisoquinolin-1(2H)-one], the GI50 is reported as 0.212 µM.
In the case of `CCn1cc(-c2cc(Cn3ccn(C)c3=N)cc3c2CCN(Cc2cc(C)nn2C)C3=O)c(C(F)(F)F)n1` [Example 74], the GI50 is reported as > 0.938 µM.
`COc1ccnc(CN2CCc3c(cc(CN4CCCC4=N)cc3-c3ccc(F)cc3C)C2=O)c1` [Example 114, 5-(4-Fluoro-2-methylphenyl)-7-((2-iminopyrrolidin-1-yl)methyl)-2-((4-methoxypyridin-2-yl)methyl)-3,4-dihydroisoquinolin-1(2H)-one] was tested, and the GI50 was 0.129 µM.
For `CCn1cc(-c2cc(Cn3ccnc3C)cc3c2CCN([C@@H](C)c2cncc(OC)c2)C3=O)c(C(F)(F)F)n1` [Example 243, (S)-5-(1-Ethyl-3-(trifluoromethyl)-1H-pyrazol-4-yl)-2-(1-(5-methoxypyridin-3-yl)ethyl)-7-((2-methyl-1H-imidazol-1-yl)methyl)-3,4-dihydroisoquinolin-1(2H)-one], the GI50 was < 0.05 µM.
For `Cc1cc(CN2CCc3c(cc(Cn4ccn(C)c4=N)cc3-c3ccc(F)cc3C)C2=O)ccc1Cl` [Example 28, 2-(4-Chloro-3-methylbenzyl)-5-(4-fluoro-2-methylphenyl)-7-((2-imino-3-methyl-2,3-dihydro-1H-imidazol-1-yl)methyl)-3,4-dihydroisoquinolin-1(2H)-one], the GI50 was > 0.938 µM.
In the case of `COc1ccnc([C@H](C)N2CCc3c(cc(Cn4ccoc4=N)cc3-c3cn(C)nc3C(F)(F)F)C2=O)c1` [Example 93, (S)-7-((2-Iminooxazol-3(2H)-yl)methyl)-2-(1-(4-methoxypyridin-2-yl)ethyl)-5-(1-methyl-3-(trifluoromethyl)-1H-pyrazol-4-yl)-3,4-dihydroisoquinolin-1(2H)-one], the GI50 is reported as < 0.05 µM.
In the case of `CCn1cc(-c2cc(CN3CCOC3=N)cc3c2CCN(Cc2cc(OC)ccn2)C3=O)cn1` [Example 86, 5-(1-Ethyl-1H-pyrazol-4-yl)-7-((2-iminooxazolidin-3-yl)methyl)-2-((4-methoxypyridin-2-yl)methyl)-3,4-dihydroisoquinolin-1(2H)-one], the GI50 is reported as 0.74 µM.
For `CCn1cc(-c2cc(Cn3ccoc3=N)cc3c2CCN(Cc2cc(OC)ccn2)C3=O)cn1` [Example 87, 5-(1-Ethyl-1H-pyrazol-4-yl)-7-((2-iminooxazol-3(2H)-yl)methyl)-2-((4-methoxypyridin-2-yl)methyl)-3,4-dihydroisoquinolin-1(2H)-one], the GI50 was 0.837 µM.
For `CCn1cc(-c2cc(Cn3ccn(C)c3=N)cc3c2CN(Cc2cc(OC)ccn2)C3=O)c(C(F)(F)F)n1` [Example 137, 4-(1-Ethyl-3-(trifluoromethyl)-1H-pyrazol-4-yl)-6-((2-imino-3-methyl-2,3-dihydro-1H-imidazol-1-yl)methyl)-2-((4-methoxypyridin-2-yl)methyl)isoindolin-1-one], the GI50 was 0.944 µM.
For `COc1ccnc(CN2CCc3c(cc(CN4CCOC4=N)cc3-c3cn(C)nc3C(F)(F)F)C2=O)c1` [Example 83, 7-((2-Iminooxazolidin-3-yl)methyl)-2-((4-methoxypyridin-2-yl)methyl)-5-(1-methyl-3-(trifluoromethyl)-1H-pyrazol-4-yl)-3,4-dihydroisoquinolin-1(2H)-one], the GI50 was < 0.05 µM.
For `Cc1cc([C@H](C)N2CCc3c(OCC4CC4)cc(Cn4ccnc4C4CC4)cc3C2=O)ccc1F` [Example 23, (S)-7-((2-Cyclopropyl-1H-imidazol-1-yl)methyl)-5-(cyclopropylmethoxy)-2-(1-(4-fluoro-3-methylphenyl)ethyl)-3,4-dihydroisoquinolin-1(2H)-one], the GI50 was > 0.938 µM.
For `CCn1cc(-c2cc(Cn3ccoc3=N)cc3c2CCN(Cc2cc(OC)ccn2)C3=O)c(C(F)(F)F)n1` [Example 89, 5-(1-Ethyl-3-(trifluoromethyl)-1H-pyrazol-4-yl)-7-((2-iminooxazol-3(2H)-yl)methyl)-2-((4-methoxypyridin-2-yl)methyl)-3,4-dihydroisoquinolin-1(2H)-one], the GI50 was < 0.05 µM.
For `CCn1cc(-c2cc(CN3CCSC3=N)cc3c2CCN([C@@H](C)c2cc(OC)ccn2)C3=O)c(C(F)(F)F)n1` [Example 151, (S)-5-(1-Ethyl-3-(trifluoromethyl)-1H-pyrazol-4-yl)-7-((2-iminothiazolidin-3-yl)methyl)-2-(1-(4-methoxypyridin-2-yl)ethyl)-3,4-dihydroisoquinolin-1(2H)-one], the GI50 was < 0.05 µM.
With `COc1cc(CN2CCc3c(OC4CCC4)cc(Cn4ccn(C)c4=N)cc3C2=O)cc(OC)c1` [Example 69, 5-Cyclobutoxy-2-(3,5-dimethoxybenzyl)-7-((2-imino-3-methyl-2,3-dihydro-1H-imidazol-1-yl)methyl)-3,4-dihydroisoquinolin-1(2H)-one] the GI50 was 0.502 µM.
`COc1ccnc(CN2CCc3c(cc(Cn4ccoc4=N)cc3-c3cn(C)nc3C)C2=O)c1` [Example 85, 5-(1,3-Dimethyl-1H-pyrazol-4-yl)-7-((2-iminooxazol-3(2H)-yl)methyl)-2-((4-methoxypyridin-2-yl)methyl)-3,4-dihydroisoquinolin-1(2H)-one] showed a GI50 of 0.057 µM.
In the case of `Cc1cc(CN2CCc3c(cc(Cn4ccnc4C)cc3-c3cn(C)nc3C(F)(F)F)C2=O)ccn1` [Example 208, 7-((2-Methyl-1H-imidazol-1-yl)methyl)-5-(1-methyl-3-(trifluoromethyl)-1H-pyrazol-4-yl)-2-((2-methylpyridin-4-yl)methyl)-3,4-dihydroisoquinolin-1(2H)-one], the GI50 is reported as 0.251 µM.

Same assay, conditions: Homo sapiens, MV4-11, 120 h, read-out: GI50 on cellular proliferation of MV4:11 human cancer cell lines
In the case of `CCn1cc(-c2cc(Cc3cncn3C)cc3c2CCN([C@@H](C)c2cc(OC)ccn2)C3=O)c(C(F)(F)F)n1` [Example 257, (S)-5-(1-Ethyl-3-(trifluoromethyl)-1H-pyrazol-4-yl)-2-(1-(4-methoxypyridin-2-yl)ethyl)-7-((1-methyl-1H-imidazol-5-yl)methyl)-3,4-dihydroisoquinolin-1(2H)-one], the GI50 is reported as < 0.05 µM.
